Consider 24 molecules from PubChem BioAssay AID328 (DTP/NCI, 2004).

“And” between values parts separate entries of the source, which are not always exact repeats. Equal entries are not always repeated. Toxic doses and inconclusive results are not listed.

The subject of the assay is BDF1 mice, P388 leukemia ip, median survival T/C. Briefly: NCI In Vivo Anticancer Drug Screen. Data for tumor model P388 Leukemia (intraperitoneal) in B6D2F1 (BDF1) mice. The settings on record: endpoint: median survival time, higher = longer survival. The method, boiled down:
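Vehicle-dosed animals serve as the reference; survival of compound-dosed, tumour-implanted mice is divided by it.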

Setting [1] is: dose: 50.0 mg/kg/injection, schedule: Q04DX003 (ip), vehicle: Klucel (hydroxypropylcellulose) (HPC).
The mark [2] stands for this setting: dose: 100.0 mg/kg/injection, schedule: Q04DX003 (ip), vehicle: Klucel (hydroxypropylcellulose) (HPC).
The mark [3] stands for this setting: dose: 200.0 mg/kg/injection, schedule: Q04DX003 (ip), vehicle: Klucel (hydroxypropylcellulose) (HPC).
Setting [4] is: dose: 100.0 mg/kg/injection, schedule: Q04DX003 (ip), vehicle: saline with Tween-80.
[5] abbreviates: dose: 200.0 mg/kg/injection, schedule: Q01DX009 (ip), vehicle: saline with Tween-80.
[6] abbreviates: dose: 200.0 mg/kg/injection, schedule: Q04DX003 (ip), vehicle: saline with Tween-80.
The mark [7] stands for this setting: dose: 400.0 mg/kg/injection, schedule: Q04DX003 (ip), vehicle: saline with Tween-80.
Where [8] appears, read: dose: 12.5 mg/kg/injection, schedule: Q04DX003 (ip), vehicle: saline with Tween-80.
Where [9] appears, read: dose: 25.0 mg/kg/injection, schedule: Q04DX003 (ip), vehicle: saline with Tween-80.
Where [10] appears, read: dose: 50.0 mg/kg/injection, schedule: Q01DX009 (ip), vehicle: saline with Tween-80.
Where [11] appears, read: dose: 50.0 mg/kg/injection, schedule: Q04DX003 (ip), vehicle: saline with Tween-80.
The mark [12] stands for this setting: dose: 100.0 mg/kg/injection, schedule: Q01DX009 (ip), vehicle: saline with Tween-80.
The mark [13] stands for this setting: dose: 75.0 mg/kg/injection, schedule: Q01DX009 (ip), vehicle: other.
[14] abbreviates: dose: 400.0 mg/kg/injection, schedule: Q01DX009 (ip), vehicle: saline with Tween-80.
The mark [15] stands for this setting: dose: 100.0 mg/kg/injection, schedule: Q01DX001 (ip), vehicle: saline with Tween-80.
Where [16] appears, read: dose: 200.0 mg/kg/injection, schedule: Q01DX001 (ip), vehicle: saline with Tween-80.
The mark [17] stands for this setting: dose: 400.0 mg/kg/injection, schedule: Q01DX001 (ip), vehicle: saline with Tween-80.

Consider `CN(/N=C/C(O)C(O)C(O)CO)c1ccccc1` (stereo unspecified), for which the T/C is 105 % of control under setting [1], 105 % of control under setting [2] and 100 % of control under setting [3].

For the molecule `O=NN(CCF)C(=O)NC1CCS(=O)(=O)CC1`, the T/C runs as follows: (dose: 0.15 mg/kg/injection, schedule: Q04DX003 (ip), vehicle: saline) 115 % of control; (dose: 0.3 mg/kg/injection, schedule: Q04DX003 (ip), vehicle: saline) 120 % of control.

Turning to `O=C1c2cc(Cl)ccc2-c2c(Cl)cc(Cl)cc21`, the T/C under setting [4] is 91 % of control, the T/C under setting [5] was 87 % of control, the T/C under setting [6] is 100 % of control and the T/C under setting [7] is 91 % of control.

As for `CN1CCN(C(=O)Cc2c[nH]c3ccccc23)CC1`, the T/C was 105 % of control (dose: 6.25 mg/kg/injection, schedule: Q01DX009 (ip), vehicle: saline with Tween-80); 111 % of control under setting [8]; 101 % of control under setting [9]; 95 % of control under setting [10]; 104 % of control under setting [11]; 89 % of control under setting [12]. Also, the T/C under setting [4] is 113 % of control.

Turning to `O=c1[nH]cnc2c1nnn2C1OC(CO)C(O)C1O` (stereo unspecified), the T/C was 95 % of control (dose: 50.0 mg/kg/injection, schedule: Q01DX006 (ip), vehicle: saline) and 117 % of control (dose: 130.0 mg/kg/injection, schedule: Q01DX006 (ip), vehicle: saline).

With `Nc1cccs1`, the T/C is, setting by setting: (dose: 9.38 mg/kg/injection, schedule: Q01DX009 (ip), vehicle: other) 104 % of control; (dose: 18.75 mg/kg/injection, schedule: Q01DX009 (ip), vehicle: other) 100 % of control; (dose: 37.5 mg/kg/injection, schedule: Q01DX009 (ip), vehicle: other) 100 % of control; under setting [10], 98 % of control; under setting [13], 98 % of control; under setting [12], 116 % of control. In addition, the T/C reads like this: (dose: 150.0 mg/kg/injection, schedule: Q01DX009 (ip), vehicle: other) 101 % of control; under setting [5], 114 % of control; under setting [14], 87 % of control.

Regarding `COc1cc[n+]([O-])cc1`, the T/C by setting is: (dose: 100.0 mg/kg/injection, schedule: Q04DX003 (ip), vehicle: saline) 95 % of control; (dose: 200.0 mg/kg/injection, schedule: Q04DX003 (ip), vehicle: saline) 95 % of control; (dose: 400.0 mg/kg/injection, schedule: Q04DX003 (ip), vehicle: saline) 100 % of control.

Regarding `COc1cc2c3c(c4ccc(O)cc4c2cc1OC)[C@@H](O)[C@@H]1CCCN1C3`, the T/C is, setting by setting: (dose: 2.5 mg/kg/injection, schedule: Q01DX009 (ip), vehicle: water) 115 % of control; (dose: 5.0 mg/kg/injection, schedule: Q01DX009 (ip), vehicle: water) 123 % of control.

Take `COC(=O)Cc1[nH]ccc1C(=O)OC`: the T/C is, setting by setting: under setting [15], 103 % of control; under setting [16], 109 % of control; under setting [17], 120 % of control.

As for `CCCCCCCC(O)CCC` (stereo unspecified), the T/C under setting [2] is 108 % of control; the T/C under setting [3] was 100 % of control; the T/C (dose: 400.0 mg/kg/injection, schedule: Q04DX003 (ip), vehicle: Klucel (hydroxypropylcellulose) (HPC)) is 87 % of control.

For the molecule `COc1ccc(OC)c(C(=O)C=C(C(F)(F)F)C(F)(F)F)c1`, the T/C reads like this: (dose: 33.0 mg/kg/injection, schedule: Q01DX009 (ip), vehicle: other) 109 % of control; (dose: 50.0 mg/kg/injection, schedule: Q01DX009 (ip), vehicle: other) 113 % of control; under setting [13], 122 % of control.

`COc1cc(Cl)c(CC(=O)c2c[nH]c3ccccc23)cc1OC`: the T/C under setting [10] is 103 % of control and the T/C under setting [5] was 99 % of control.

Regarding `CCc1c(-c2ccccc2)[nH]c2ccccc12`, the T/C under setting [10] is 115 % of control, the T/C under setting [12] was 113 % of control and the T/C under setting [5] was 123 % of control.

In the case of `CCC(CC)C(O)C(C)C(C)O` (stereo unspecified), the T/C reads like this: under setting [4], 100 % of control; under setting [6], 100 % of control; under setting [7], 100 % of control.

With `Fc1ccc(NC(=S)SCc2ccc3c(c2)OCO3)cc1F`, the T/C is 116 % of control (dose: 50.0 mg/kg/injection, schedule: Q01DX009 (ip), vehicle: saline + alcohol); 109 % of control under setting [10]; 116 % of control (dose: 100.0 mg/kg/injection, schedule: Q01DX009 (ip), vehicle: saline + alcohol); 116 % of control under setting [12]; 155 % of control under setting [5].

Turning to `CCCCCCCCSP(=S)(N1CC1)N1CC1`, the T/C under setting [12] is 90 % of control; the T/C under setting [4] was 88 % of control; the T/C under setting [5] is 100 % of control; the T/C under setting [6] is 94 % of control; the T/C under setting [14] was 95 % of control; the T/C under setting [7] was 88 % of control.

Consider `Clc1nc(SC2=NCCN2)c2[nH]cnc2n1`, for which the T/C is, setting by setting: under setting [8], 108 % of control; (dose: 33.0 mg/kg/injection, schedule: Q04DX003 (ip), vehicle: saline with Tween-80) 118 % of control; under setting [11], 154 % of control.

With `COc1cc(/C=N/NC(N)=S)cc(OC)c1OC`, the T/C runs as follows: under setting [12], 104 % of control; under setting [4], 90 % of control; under setting [5], 104 % of control; under setting [6], 109 % of control; under setting [14], 100 % of control; under setting [7], 104 % of control.

For `Cc1cc(O)c(C(c2ccccc2)c2c(O)cc(C)[nH]c2=O)c(=O)[nH]1`, the T/C runs as follows: under setting [10], 94 % of control; under setting [12], 86 % of control.

Turning to `CCCCCCC(=O)CC(SCC)c1ccc(Cl)cc1` (stereo unspecified), the T/C reads like this: under setting [10], 98 % of control; under setting [12], 102 % of control; under setting [5], 112 % of control.

With `CCC(CO)NC(=O)Nc1cccc2ccccc12` (stereo unspecified), the T/C is, setting by setting: under setting [15], 109 % of control; under setting [16], 100 % of control; under setting [17], 109 % of control.

With `CNc1ccc(/C=C2\C=Cc3ccccc32)cc1`, the T/C runs as follows: (dose: 12.0 mg/kg/injection, schedule: Q01DX009 (ip), vehicle: Klucel (hydroxypropylcellulose) (HPC)) 118 % of control; (dose: 12.0 mg/kg/injection, schedule: Q01DX009 (ip), vehicle: gum acacia) 107 % of control; (dose: 12.5 mg/kg/injection, schedule: Q04DX003 (ip), vehicle: gum acacia) 103 % of control; (dose: 25.0 mg/kg/injection, schedule: Q01DX009 (ip), vehicle: Klucel (hydroxypropylcellulose) (HPC)) 100 % of control; (dose: 25.0 mg/kg/injection, schedule: Q01DX009 (ip), vehicle: gum acacia) 103 % of control; (dose: 25.0 mg/kg/injection, schedule: Q04DX003 (ip), vehicle: Klucel (hydroxypropylcellulose) (HPC)) 104 % of control. Besides, the T/C by setting is: (dose: 25.0 mg/kg/injection, schedule: Q04DX003 (ip), vehicle: gum acacia) 100 % of control; (dose: 50.0 mg/kg/injection, schedule: Q01DX009 (ip), vehicle: Klucel (hydroxypropylcellulose) (HPC)) 90 % of control; (dose: 50.0 mg/kg/injection, schedule: Q01DX009 (ip), vehicle: gum acacia) 92 % of control; under setting [1], 100 % of control; (dose: 50.0 mg/kg/injection, schedule: Q04DX003 (ip), vehicle: gum acacia) 103 % of control; under setting [2], 86 % of control and 95 % of control.

As to `CCCCCCCCCCCC[S+](C)C`, the T/C runs as follows: (dose: 10.0 mg/kg/injection, schedule: Q01DX010 (ip), vehicle: saline) 116 % of control; (dose: 10.0 mg/kg/injection, schedule: Q04DX003 (ip), vehicle: saline) 120 % of control; (dose: 20.0 mg/kg/injection, schedule: Q01DX010 (ip), vehicle: saline) 112 % of control; (dose: 20.0 mg/kg/injection, schedule: Q04DX003 (ip), vehicle: saline) 120 % of control.

Turning to `c1cnc2c3c(ccc2c1)CN(C12CC4CC(CC(C4)C1)C2)CO3`, the T/C by setting is: under setting [9], 108 % of control; under setting [11], 109 % of control and 113 % of control; under setting [4], 108 % of control.
